pIC50: −log10 of the molar value. Activity calls are given as the source filed them.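 Rule for the calls: active = compounds whose fitted half-maximal concentration in the cell-protection dose series is at or below a set limit; inactive = the rest.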
System: H9c2 cardiomyocytes, 2-deoxyglucose stress, ATP luminescence, 2 h
Assay: H9c2 cell survival under 2-deoxyglucose stress – uHTS hits, dose response (AID 588780)

Row | SMILES | IC50 | pIC50
1 | COc1ccc(-c2cc(NC=O)c3ncc(-c4ccc(C(C)=O)cc4)n3c2)cn1 | > 79 µM (inactive) | 
2 | O=C(c1ccccc1)c1ccc2nc(N3CCN(C(=O)c4ccco4)CC3)c3nncn3c2c1 |  | 4.83
3 | COc1ccccc1NC(=O)COc1ccc(C(=O)OCC(=O)NC(C)(C)C)cc1OC |  | 4.76
4 | O=C(NNC(=O)c1ccccc1OCc1ccccc1Cl)c1csc(N2CCOCC2)n1 |  | 4.65
5 | O=C(N/N=C/c1cccc(O)c1)c1cc(-c2ccc3c(c2)OCO3)n[nH]1 | > 79 µM (inactive) | 
6 | O=C(COc1cccc2c1CCNC2=O)NC1CCCCC1 | > 79 µM (inactive) | 
7 | CN(C)C(=O)C1C2NC(=S)N(c3cccc(Cl)c3)C1(C)Oc1ccc(Cl)cc12 (stereo unspecified) | 66.7 µM (inactive) | 
8 | O=C(CN1CCN(c2ccccc2F)CC1)c1ccc(O)c(O)c1 | > 79 µM (inactive) | 
9 | COc1cccc(-c2cnc3c(NC=O)cc(-c4cc(C)c(O)c(C)c4)cn23)c1 |  | 4.99
10 | C=CCc1ccccc1OCC(=O)N/N=C/c1ccc(OC(C)=O)cc1OC(C)=O | > 79 µM (inactive) | 
11 | Cc1cc(C(=O)COc2ccccc2C(N)=O)c(C)n1C |  | 4.60
12 | O=C(COc1ccc(F)cc1)N/N=C/c1cccc2cccnc12 | > 79 µM (inactive) | 
13 | Cn1nc(-c2ccccc2F)c2cc(C(=O)Nc3ccc4c(c3)OCCO4)sc21 | > 79 µM (inactive) | 
14 | Cc1c(C(=O)Nc2ccc3nc(N4CCOCC4)sc3c2)oc2ccccc12 | > 79 µM (inactive) | 
15 | COc1cc(/C=C/c2nc(-c3ccccc3O)n[nH]2)cc(OC)c1OC | > 79 µM (inactive) | 
16 | COc1cccc(Nc2nc3ccccc3n3cnnc23)c1 |  | 4.90
17 | O=C(COC(=O)CCc1nc2ccccc2c(=O)[nH]1)Nc1c(Cl)cccc1C(F)(F)F | > 79 µM (inactive) | 
18 | COc1ccccc1CN(C(=O)CNC(=O)c1ccco1)C(C(=O)NCC1CCCO1)c1ccccc1 (stereo unspecified) |  | 4.93
19 | C=C1C(C)C2C(Cc3ccccc3)NC(=O)C23OC(=O)/C=C/C(O)CCCC(C)C/C=C/C3C1O (stereo unspecified) | > 79 µM (inactive) | 
20 | O=c1cc(-c2ccncc2)oc2ccccc12 | > 79 µM (inactive) | 
21 | COc1ccc(S(=O)(=O)N2CCOCC2)cc1NC(=O)c1cccc2c(=O)c(C)c(-c3ccccc3)oc12 |  | 4.74
22 | COc1ccc(C(=O)COC(=O)Cc2n[nH]c(=O)c3ccccc23)c(OC)c1 | > 79 µM (inactive) | 
23 | CCOCCCNC(=O)CCC(=O)NNc1nc2ccccc2c2nc(-c3ccccc3)nn12 | 54 µM (inactive) | 

Row | SMILES | IC50 | pIC50
24 | CCCCCCSc1ccc([C@H]2N[C@@](Cc3ccccc3)(C(=O)OC)[C@H]3C(=O)N(C)C(=O)[C@@H]23)cc1 | > 79 µM (inactive) | 
25 | COc1cc(C(=O)Nc2nc(-c3cccs3)cs2)cc(OC)c1OC |  | 5.14
26 | CC(=NCCCn1ccnc1)c1c(-c2ccccc2)[nH]n(-c2nc3ccccc3s2)c1=O | > 79 µM (inactive) | 
27 | COc1ccc(/C=N/NC(=O)c2ccc(COc3cccc4cccnc34)cc2)cc1OC | > 79 µM (inactive) | 
28 | COc1cccc(CN2CCN(C(=O)c3cc(-c4cccnc4)nc4ccc(C)cc34)CC2)c1 |  | 4.65
29 | COc1cc(NC(=O)c2cc3nc(-c4ccccc4)cc(-c4ccccc4)n3n2)cc(OC)c1OC | > 79 µM (inactive) | 
30 | CCN(C[C@H]1N[C@@](CC)(C(=O)OC)[C@H]2C(=O)N(Cc3ccccc3)C(=O)[C@@H]12)S(=O)(=O)c1ccc(F)cc1 | > 79 µM (inactive) | 
31 | COc1ccc(CC(=O)NCC(=O)N/N=C/c2cc(Br)ccc2OC)cc1 | > 79 µM (inactive) | 
32 | CCn1cc(C(=O)Nc2cccc(NC(C)=O)c2)c2cc(OC)c(OC)cc2c1=O | > 79 µM (inactive) | 
33 | COc1ccc(NCc2cc3cc(OC)ccc3[nH]c2=O)cc1 | > 79 µM (inactive) | 
34 | CCCN(CC(=O)Nc1ccc(F)c(F)c1F)C(=O)CCc1nc2ccccc2c(=O)[nH]1 | > 79 µM (inactive) | 
35 | COc1ccc2[nH]c(=O)c(CN(c3ccccc3OC)S(=O)(=O)c3ccccc3)cc2c1 |  | 4.82
36 | COc1cccc(-c2nn3c(-c4ccccn4)nnc3s2)c1 |  | 4.87
37 | CSc1nnc(NC(=O)c2cc3ccccc3oc2=O)s1 | > 79 µM (inactive) | 
38 | NS(=O)(=O)c1ccc(CCNc2ccn3nc(-c4ccc(OCCN5CCOCC5)cc4)cc3n2)cc1 | 37.3 µM (inactive) | 
39 | COc1ccc(/C=N/NC(=O)c2cccnc2)cc1CSc1nc2ccccc2s1 |  | 4.91
40 | CC(C)C1Nc2ccc(C(=O)N3CCN(c4ccccn4)CC3)cc2NC1=O (stereo unspecified) | > 79 µM (inactive) | 
41 | O=C(CNC(=O)c1nc[nH]c1C(=O)NCc1ccccc1)OCc1ccccc1 | > 79 µM (inactive) | 
42 | CCOc1ccc(NCc2cc3c(C(C)(C)C)nn(-c4ccccc4)c3[nH]c2=O)cc1 | > 79 µM (inactive) | 
43 | CCC(=O)N1CCN(c2ccccc2NC(=O)COc2cc(C)ccc2C(C)C)CC1 |  | 4.94
44 | CC(=O)Nc1cccc(-c2cc(NC(C)=O)c3ncc(-c4ccccc4)n3c2)c1 |  | 4.89
45 | Clc1ccccc1-c1nc(N/N=C/c2cccnc2)c2ccccc2n1 |  | 5.08
46 | CN(C(=O)Cn1nc(C(=O)O)c2ccccc2c1=O)C1(C#N)CCCCC1 | > 79 µM (inactive) | 

Row | SMILES | IC50 | pIC50
47 | CCOc1ccc2[nH]c(=O)c(CN(CCO)C3(c4nnnn4C4CCCCC4)CCCCC3)cc2c1 | 35.1 µM (inactive) | 
48 | COc1ccc(S(=O)(=O)N2CC(O)CC2C(=O)OCc2nc3sc(C)c(C)c3c(=O)[nH]2)cc1 (stereo unspecified) | > 79 µM (inactive) | 
49 | CC(C)(C)OC(=O)NCC12C=CC(O1)C1C(=O)N(Cc3ccccc3)C(=O)C12 (stereo unspecified) | > 79 µM (inactive) | 
50 | CC(=O)Nc1cccc(-c2cc(NC=O)c3ncc(-c4cccc(C(C)=O)c4)n3c2)c1 | > 79 µM (inactive) | 
51 | COc1ccc(C(=O)COC(=O)C(CCCCN2C(=O)C3C4C=CC(C4)C3C2=O)N2C(=O)C3C4C=CC(C4)C3C2=O)cc1 (stereo unspecified) |  | 4.86
52 | COc1ccc(-c2csc(NC(=O)c3cccc(N4C(=O)CCC4=O)c3)n2)cc1OC |  | 4.98
53 | Cc1nn(-c2ccccc2)c(C)c1/C=N/NC(=O)c1cc(C2CC2)[nH]n1 |  | 4.90
54 | Cc1cc(C(=O)N/N=C/c2c(CO)cnc(C)c2O)c2ccccc2n1 | > 79 µM (inactive) | 
55 | COc1ccc(-c2nc(NC(=O)c3ccc(OCC(=O)N4CCOCC4)c(OC)c3)sc2C)cc1 | > 79 µM (inactive) | 
56 | CCc1nnc(NC(=O)CCC(=O)N2CCN(C3c4ccccc4-c4ccccc43)CC2)s1 | > 79 µM (inactive) | 
57 | CCOC(=O)COc1ccc2c3c(c(=O)oc2c1)CCCC3 | > 79 µM (inactive) | 
58 | Nc1ccc(-c2n[nH]c(=O)c3ccccc23)cc1N | > 79 µM (inactive) | 
59 | Cc1[nH]c2ccccc2c1/C=N/NC(=O)c1cc(-c2cccs2)[nH]n1 | > 79 µM (inactive) | 
60 | CC(OC(=O)CCc1nc2ccccc2c(=O)[nH]1)C(=O)NCc1ccc2c(c1)OCO2 (stereo unspecified) | > 79 µM (inactive) | 
61 | CC(C)(C)OC(=O)N1CCC(NC(=O)c2nc[nH]c2C(=O)NCC(=O)OCc2ccccc2)CC1 | > 79 µM (inactive) | 
62 | CCN(CC)S(=O)(=O)c1cccc(C(=O)N/N=C/c2ccccn2)c1 | > 79 µM (inactive) | 
63 | CCN(C[C@H]1N[C@@](C)(C(=O)OC)[C@H]2C(=O)N(Cc3ccccc3)C(=O)[C@@H]12)C(=O)c1ccc(C(C)(C)C)cc1 | > 79 µM (inactive) | 
64 | COc1cc(NC(=O)c2ccc(-c3cn[nH]c3)c3ccoc23)cc(OC)c1OC |  | 4.98
65 | CCOC(=O)c1ccccc1OCc1cc(/C=N/NC(=O)c2cccnc2)ccc1OC |  | 4.97
66 | Cc1sc2nc(CSCC(=O)N(C)CC(=O)Nc3ccc(F)cc3)[nH]c(=O)c2c1C | > 79 µM (inactive) | 
67 | NC(=O)c1nsc(C(=O)N(c2ccccc2)C(C(=O)NC2CCCC2)c2ccc3ncccc3c2)c1N (stereo unspecified) | > 79 µM (inactive) | 
68 | O=C(Nc1nc(-c2ccccn2)cs1)c1cccc(S(=O)(=O)N2CCOCC2)c1 | 41.5 µM (inactive) | 
69 | S=c1[nH]c2ccccc2c2ccccc12 | > 79 µM (inactive) | 

Row | SMILES | IC50 | pIC50
70 | CCOC(=O)c1ccccc1NC(=O)c1ccc2c(=O)n3c(nc2c1)CCCCC3 | > 79 µM (inactive) | 
71 | CCOc1ccc(C(C(=O)NCC2CCCO2)N(C(=O)c2snc(C(N)=O)c2N)c2ccccc2F)cc1 (stereo unspecified) |  | 4.69
72 | COc1cc(C(=O)Nc2cc3c(cc2N2CCCCC2)n(C)c(=O)n3C)cc(OC)c1OC |  | 4.60
73 | CN(CC(=O)Nc1ccccc1Br)C(=O)CCc1nc2ccccc2c(=O)[nH]1 | > 79 µM (inactive) | 
74 | COCCn1c(=NC(=O)c2nc3ccccc3s2)sc2cc(S(C)(=O)=O)ccc21 |  | 4.55
75 | O=C(c1ccco1)N1CCN(C(=O)c2cc(-c3ccncc3)nc3ccc(Br)cc23)CC1 |  | 4.86
76 | O=C1[C@H]2[C@@H](c3ccc(C(F)(F)F)cc3)N[C@]3(CCCN(Cc4ccc(F)cc4)C3=O)[C@H]2C(=O)N1Cc1ccccc1 | > 79 µM (inactive) | 
77 | CCOC(=O)c1c(C)nc2sc3c(=O)n(-c4ccc(C(C)=O)cc4)cnc3c2c1-c1ccc(OC)cc1 | > 79 µM (inactive) | 
78 | CC(C)=NNc1cnnc2ccc([N+](=O)[O-])cc12 |  | 4.91
79 | CCOc1ccc2[nH]c(=O)c(CN(Cc3ccco3)C(CC)c3nnnn3Cc3ccccc3)cc2c1 (stereo unspecified) | > 79 µM (inactive) | 
80 | CCOc1ccc(/C=C/C(=O)c2cc(Br)ccc(=O)c2O)cc1 | > 79 µM (inactive) | 
81 | COc1ccc(Cl)cc1NC(=O)CN(C)C(=O)Cn1[nH]c(=O)c2ccccc2c1=O | > 79 µM (inactive) | 
82 | O=C(c1ccc(-c2nc3ccccc3s2)o1)N1CCN(c2ccccc2O)CC1 |  | 4.91
83 | COc1cccc(NC(=O)CN(C)C(=O)Cc2n[nH]c(=O)c3ccccc23)c1 | > 79 µM (inactive) | 
84 | CCN1C(=O)[C@H]2[C@@H](c3ccc(-c4ccc(C(C)=O)cc4)cc3)N[C@@](C)(C(=O)OC)[C@H]2C1=O | > 79 µM (inactive) | 
85 | COC(=O)c1ccccc1NC(=O)c1ccc2nccnc2c1 | > 79 µM (inactive) | 
86 | Cc1c(NC(=O)Cn2[nH]c(=O)c3ccccc3c2=O)c(=O)n(-c2ccccc2)n1C | > 79 µM (inactive) | 
87 | CCOC(=O)C1CCCN(C(=O)CCC(=O)Nc2ccc3nc(N4CCOCC4)cc(C)c3c2)C1 (stereo unspecified) |  | 4.96
88 | CC(=O)Nc1cccc(NC(=O)c2cc(-c3cccnc3)nc3ccc(Cl)cc23)c1 | > 79 µM (inactive) | 
89 | NC(=O)c1ccccc1OCC(=O)NC12CC3CC(CC(C3)C1)C2 | > 79 µM (inactive) | 
90 | Cc1ccc(OCC(=O)N/N=C/c2cccc3cccnc23)cc1 | 35.8 µM (inactive) | 
91 | C[C@@H]1CN([C@H](C)CO)S(=O)(=O)c2ccc(C#Cc3ccccc3F)cc2O[C@H]1CN(C)C(=O)c1ccc2c(c1)OCO2 | > 79 µM (inactive) | 

Reference: PubChem BioAssay AID588780 (Sanford-Burnham Center for Chemical Genomics, 2011)
